According to patent US20050142574A1, “Mutants of core 2 B-1, 6-N-acetylglycosaminyltransferase” (Seikagaku Corporation and Glycodesign Holdings Ltd., priority 2003, published 2005):
Positions count from the first letter of the chain named. Read-outs that look alike come from different tables or passages of the source.

Columns and labels:
Type in all cases: biochemical
[1] = target: T1, C217S mouse Core 2 GlcNAcT1 (Mus musculus, UniProt Q09324, C217S); assay: Kinetic characterization assays (standard enzyme assay with titrated substrate or product); details: for inhibitory potential of the reaction product, C217S compared with wild-type: mouse enzymes, titrated product in standard assay
T1 construct: made in house; host or cells: CHO-S or COS-7 cells, secreted, purified on anti-FLAG M1 beads
T1 sequence (Q09324 with tags, fused parts or gaps R88W/S191T/C217S/T260A/H362D/H420R): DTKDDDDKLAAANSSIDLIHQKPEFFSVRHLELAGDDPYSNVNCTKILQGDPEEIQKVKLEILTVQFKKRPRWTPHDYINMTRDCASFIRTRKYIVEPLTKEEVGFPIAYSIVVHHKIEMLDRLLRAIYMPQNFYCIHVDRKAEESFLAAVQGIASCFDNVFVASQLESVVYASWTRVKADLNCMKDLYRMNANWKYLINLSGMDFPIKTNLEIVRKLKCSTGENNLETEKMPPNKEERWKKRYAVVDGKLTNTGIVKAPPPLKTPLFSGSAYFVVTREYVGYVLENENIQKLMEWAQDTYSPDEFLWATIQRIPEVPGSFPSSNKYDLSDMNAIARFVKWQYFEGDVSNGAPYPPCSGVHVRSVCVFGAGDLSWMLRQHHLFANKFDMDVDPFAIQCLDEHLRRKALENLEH
Protocol: (§1) Standard enzyme assays for wild-type and mutant (217Cys→Ser) Core 2 GlcNAcT1 were carried out in a 30 μl solution containing 30 mM 2-morpholinoethanesulfonic acid (MES) buffer (pH 6.7), 1.0 mM UDP-GlcNAc (donor substrate), 1.0 μCi UDP-6-[3H]GlcNAc, 0.50 mM (Galβ1-3)GalNAcα-pNp (acceptor substrate or AS), 1 mg/ml BSA, and 15-25 μU (1 unit=1 micromole/min) per assay of recombinant Core 2 GlcNAcT1 protein. The reaction was incubated for 2.0 hours at 37° C. and stopped by the addition of 460 μl of water. Reactions were frozen at −20° C. if they were not processed immediately. The reaction product Galβ1,3 [^3H]GlcNAc(β1,6)GalNAcα-pNp was separated from unreacted UDP-6[^3H]GlcNAc by solid phase extraction using Waters Sep-Pak columns. Samples were eluted from the column with ethanol, added to 10 ml of scintillation fluid and radioactivity (DPM) was determined.
(§2) Km values were determined by running the standard assay conditions with the exception of the titration of the donor substrate UDP-GlcNAc concentration (for Km,DS) or AS concentration (for Km,AS). The IC50 values for the products UDP and GlcNAc(β1-6)Gal(β1-3)GalNAcα-pNp were determined by running the standard assay conditions and adding titrated product. The mechanism was determined by titrating both donor and acceptor substrates at the same time.

[2] = target: T2, C217S human Core 2 GlcNAcT1 (Homo sapiens, UniProt Q02742, C217S); assay: as above; details: for inhibitory potential of the reaction product, C217S compared with wild-type: human enzymes, titrated product in standard assay; for Km: C217S human enzyme
T2 construct: S-tag (N, cleaved yes); made in house
T2 sequence (Q02742 37-428 C217S): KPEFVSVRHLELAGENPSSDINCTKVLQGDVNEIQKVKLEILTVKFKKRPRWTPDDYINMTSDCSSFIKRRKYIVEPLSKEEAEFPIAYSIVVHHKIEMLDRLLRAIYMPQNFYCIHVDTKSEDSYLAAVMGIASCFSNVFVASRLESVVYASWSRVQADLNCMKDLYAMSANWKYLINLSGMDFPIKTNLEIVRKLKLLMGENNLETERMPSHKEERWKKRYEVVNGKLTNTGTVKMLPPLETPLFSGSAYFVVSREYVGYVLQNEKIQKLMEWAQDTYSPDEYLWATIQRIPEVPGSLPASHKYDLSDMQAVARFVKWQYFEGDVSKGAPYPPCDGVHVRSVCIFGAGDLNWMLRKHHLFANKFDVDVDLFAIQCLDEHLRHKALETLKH
Protocol: as §1, §2

[3] = target: T3, wild-type human Core 2 GlcNAcT1 (Homo sapiens, UniProt Q02742, I152V); assay: as above
T3 construct: S-tag (N, cleaved yes); made in house
T3 sequence (Q02742 37-428 I152V): T2 sequence (Q02742 37-428 C217S) with I116V, S181C
Protocol: as §1, §2

[4] = target: T4, wild-type mouse Core 2 GlcNAcT1 (Mus musculus, UniProt Q09324); assay: as above; details: Ordered Bi Bi mechanism, read-out: KD for the donor substrate
T4 construct: made in house; host or cells: COS-7 or CHO-S cells, secreted into the culture supernatant, purified on anti-FLAG M1 beads
T4 sequence (Q09324 34-428 R88W/S191T/T260A/H362D/H420R): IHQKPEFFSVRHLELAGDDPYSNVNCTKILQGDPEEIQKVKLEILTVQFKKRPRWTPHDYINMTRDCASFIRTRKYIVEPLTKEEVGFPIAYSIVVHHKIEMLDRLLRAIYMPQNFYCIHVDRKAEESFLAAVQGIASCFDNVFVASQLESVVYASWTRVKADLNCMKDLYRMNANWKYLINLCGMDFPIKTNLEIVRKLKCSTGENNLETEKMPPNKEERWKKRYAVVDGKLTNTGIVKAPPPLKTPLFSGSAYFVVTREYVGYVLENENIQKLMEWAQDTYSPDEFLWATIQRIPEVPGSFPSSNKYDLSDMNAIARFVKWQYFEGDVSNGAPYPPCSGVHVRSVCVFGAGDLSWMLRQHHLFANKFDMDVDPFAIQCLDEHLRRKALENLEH
Protocol: as §1, §2

[5] = target: T5, wild-type mouse Core 2 GlcNAcT1 (Mus musculus, UniProt Q09324, H362D/H420R/R88W/S191T/T260A); assay: as above
T5 construct: made in house; host or cells: COS-7 or CHO-S cells, secreted into the culture supernatant, purified on anti-FLAG M1 beads
T5 sequence (Q09324 34-428 R88W/S191T/T260A/H362D/H420R): T4 sequence (Q09324 34-428 R88W/S191T/T260A/H362D/H420R)
Protocol: as §1, §2

[6] = target: T3, wild-type human Core 2 GlcNAcT1; assay: Effects of sulfhydryl reagents and heavy metals on enzyme activity (% activity); details: 37° C., 2.0 hours, concentrations listed on FIG. 2
Protocol: (§3) Wild-type and C217S, human and mouse, Core 2 GlcNAcT1s were dissolved in an aqueous solution containing 30 mM 2-morpholinoethanesulfonic acid (MES) buffer (pH 6.7) and 1.0 mg/ml bovine serum albumin (BSA). Iodoacetamide (IAA), 5,5′-dithiobis(2-nitrobenzoic acid) (DTNB), N-ethylmaleimide (NEM), HgCl2 and ZnSO4 were added at the concentrations listed on FIGS. 1 and 2. 1.0 mM UDP-GlcNAc, 0.50 mM Gal(β1-3)GalNAcα-pnp, (3H)UDP-GlcNAc (0.50 μCi) and 30 mM MES buffer (pH 6.7) were added as well. The solutions were incubated at 37° C. for 2.0 hours. The (^3H)UDP-GlcNAc and (^3H)GlcNAc(β1-6)Gal(β1-3)GalNAcα-pnp were separated by solid-phase extraction and the DPM of (^3H)Gal(β1-3) GlcNAc(β1-6)GalNAcα-pnp were counted by liquid scintillation. A solution containing all components with exception of enzymes was prepared to measure background levels. The % activity was calculated as follows: (DPMinhibitor−DPMbackground)/(DPMcontrol−DPMbackground)*100. All assays were performed in duplicate. The results are plotted in FIGS. 1 and 2.

[7] = target: T1, C217S mouse Core 2 GlcNAcT1; assay: as above; details: relatively high concentrations (FIG. 1), 37° C., 2.0 hours
Protocol: as §3

[8] = target: T4, wild-type mouse Core 2 GlcNAcT1; assay: as above; details: 37° C., 2.0 hours, concentrations listed on FIG. 1
Protocol: as §3

[9] = target: T2, C217S human Core 2 GlcNAcT1; assay: as above; details: relatively high concentrations (FIG. 2), 37° C., 2.0 hours
Protocol: as §3

[10] = target: T3, wild-type human Core 2 GlcNAcT1; assay: Activity of stored recombinant enzyme after addition of reducing agents; details: following storage of expressed and purified recombinant enzyme
Text: (§4) Iodoacetamide, 5,5′-dithiobis(2-nitrobenzoic acid) (DTNB), and N-ethylmaleimide causes inhibition of wild-type human and mouse Core 2 GlcNAcT1s. […] The blocking of this residue by oxidation, alkylation, or heavy metal binding causes inhibition of the enzyme.

[11] = target: T5, wild-type mouse Core 2 GlcNAcT1; assay: as above; details: following storage of expressed and purified recombinant enzyme
Text: as §4

[12] = donor substrate titrated, read-out: Km value for the donor substrate
[13] = acceptor substrate titrated, read-out: Km value for the acceptor substrate

Row | Compound | inhibition of enzyme activity [6] | inhibition of enzyme activity [7] | inhibition of enzyme activity [8] | inhibition of enzyme activity [9] | also measured
1 | CC(=O)N[C@H]1[C@H](OC[C@H]2O[C@H](Oc3ccc([N+](=O)[O-])cc3)[C@H](NC(C)=O)[C@@H](O[C@@H]3O[C@H](CO)[C@H](O)[C@H](O)[C@H]3O)[C@H]2O)O[C@H](CO)[C@@H](O)[C@@H]1O [Gal(β1-3) GlcNAc(β1-6)GalNAcα-pNp] | – | – | – | – | inhibitory potential of the reaction product, C217S compared with wild-type [1]: the same for both enzymes; inhibitory potential of the reaction product, C217S compared with wild-type [2]: the same for both enzymes
2 | uridine diphospho-N-acetylglucosamine [UDP-GlcNAc] | – | – | – | – | Km [3, 12]: 1200 µM; Kd ([1]; C217S mouse enzyme, Ordered Bi Bi mechanism, read-out: KD for the donor substrate): 110 µM; Km ([1]; C217S mouse enzyme, donor substrate titrated, read-out: Km value for the donor substrate): 1500 µM; Kd [4]: 110 µM; Km [2, 12]: 1100 µM; Km [5, 12]: 1500 µM
3 | CCN1C(=O)C=CC1=O [N-ethylmaleimide] | inhibition | not inhibited | inhibition | not inhibited | –
4 | O=C(O)c1cc(SSc2ccc([N+](=O)[O-])c(C(=O)O)c2)ccc1[N+](=O)[O-] [DTNB, 5,5′-dithiobis(2-nitrobenzoic acid)] | inhibition | not inhibited | inhibition | not inhibited | –
5 | [Cl][Hg][Cl] [Hg^2+, HgCl2] | inhibit | did not affect | inhibit | insensitive | –
6 | NC(=O)CI [Iodoacetamide] | inhibition | not inhibited | inhibition | not inhibited | –
7 | O[C@@H](CS)[C@@H](O)CS (racemic) [DTT, 1,4-dithiothreitol] | – | – | – | – | change of enzyme activity after addition of reducing agent [10]: increase; change of enzyme activity after addition of reducing agent [11]: increase
8 | O=S(=O)([O-])[O-].[Zn+2] [Zn^2+, ZnSO4] | inhibit | did not affect | inhibit | insensitive to Hg^2+ only | –
9 | CC(=O)N[C@H]1[C@@H](Oc2ccc([N+](=O)[O-])cc2)O[C@H](CO)[C@H](O)[C@@H]1O[C@@H]1O[C@H](CO)[C@H](O)[C@H](O)[C@H]1O [Gal(β1-3)GalNAcα-pNp] | – | – | – | – | Km [3, 13]: 340 µM; Km ([1]; C217S mouse enzyme, acceptor substrate titrated, read-out: Km value for the acceptor substrate): 130 µM; Km [2, 13]: 320 µM; Km [5, 13]: 150 µM
10 | O=c1ccn([C@@H]2O[C@H](COP(=O)(O)OP(=O)(O)O)[C@@H](O)[C@H]2O)c(=O)[nH]1 [UDP] | – | – | – | – | inhibitory potential of the reaction product, C217S compared with wild-type [1]: the same for both enzymes; inhibitory potential of the reaction product, C217S compared with wild-type [2]: the same for both enzymes
